From US11667602B2, “Compounds and their use” (AstraZeneca AB, priority 2020, dated 2023)
Converted amounts (≈) assume the structure as drawn. Like-named read-outs stand apart in the source and are kept apart here.

Assays:
[1] = target: T1, human RXFP1 (Homo sapiens, UniProt Q9HBX9); test: RXFP1 Hu cAMP (Test A); assay type: cell-based; parameters: expressed in transfected cells; host or cells: Jump-In T-REx CHO-K1 cells (ThermoFisher), induced with 10 ng/ml doxycycline for 24 h
T1 sequence (Q9HBX9 1-757): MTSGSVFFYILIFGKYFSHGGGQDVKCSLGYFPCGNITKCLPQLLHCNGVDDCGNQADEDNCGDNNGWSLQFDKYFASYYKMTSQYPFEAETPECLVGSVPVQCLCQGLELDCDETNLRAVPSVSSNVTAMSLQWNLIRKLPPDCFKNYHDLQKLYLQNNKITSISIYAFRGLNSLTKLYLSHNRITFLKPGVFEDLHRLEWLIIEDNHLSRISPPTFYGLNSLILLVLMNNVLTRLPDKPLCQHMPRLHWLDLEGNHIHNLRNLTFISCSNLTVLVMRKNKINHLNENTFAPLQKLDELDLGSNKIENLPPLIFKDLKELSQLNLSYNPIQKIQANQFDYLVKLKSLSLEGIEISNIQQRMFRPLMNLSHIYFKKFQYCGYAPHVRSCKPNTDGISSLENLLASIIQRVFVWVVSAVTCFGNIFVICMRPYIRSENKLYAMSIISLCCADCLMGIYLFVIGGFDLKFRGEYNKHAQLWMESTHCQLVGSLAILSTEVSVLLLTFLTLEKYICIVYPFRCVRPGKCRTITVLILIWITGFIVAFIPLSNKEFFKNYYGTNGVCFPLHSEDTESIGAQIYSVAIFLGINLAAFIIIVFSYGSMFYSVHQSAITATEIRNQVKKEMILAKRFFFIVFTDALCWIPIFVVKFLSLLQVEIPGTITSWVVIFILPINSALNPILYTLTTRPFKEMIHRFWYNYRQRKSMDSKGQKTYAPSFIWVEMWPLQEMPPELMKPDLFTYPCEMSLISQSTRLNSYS
How it was run: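 Doxycycline-induced (10 ng/ml, 24 h) CHO-K1 cells stably expressing human RXFP1; cAMP read by competitive HTRF after 2 h at room temperature, with 0.5 mM IBMX final.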

[2] = Solubility (Test F); assay type: physicochemical; settings: arithmetic mean if run multiple times
Method: The assay was conducted according to the Solubility Assay described in pages 164-167 of Wernevik, J. et al., “A Fully Integrated Assay Panel for Early Drug Metabolism and Pharmacokinetics Profiling”, Assay and Drug Development Technologies, 2020, 18(4), 157-179. Data are reported in Table 36 as solubility ([…]. Where the assay was run multiple times for the same compound, the arithmetic mean is reported.

[3] = Rat Hepatocyte Stability (Test E); assay type: in vitro ADME; settings: geometric mean if run multiple times
How it was run: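 Intrinsic clearance in rat hepatocytes, expressed as μl/min/10^6 cells, following the literature integrated DMPK panel method. Repeat determinations combined as geometric mean.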

[4] = Human Liver Microsomal Stability (Test C); assay type: in vitro ADME
How it was run: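 CLint (μl/min/mg protein) derived from compound depletion in human liver microsomes following a published standardized early-DMPK protocol; replicate determinations given as arithmetic mean.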

[5] = Human Plasma Protein Binding (Test B); assay type: in vitro ADME; settings: fraction unbound (fu)
How it was run: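 Values given as % free (fu) in human plasma, using the method of Wernevik et al. (2020). For compounds tested more than once, the arithmetic mean is given.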

[6] = RXFP1 Hu cAMP, read-out: Test A EC50

SMILES	Test A Sinf ([1]; RXFP1 Hu cAMP)	EC50 [1, 6]	solubility [2]	hepatocyte CLint ([3]; rat, hepatocytes)	microsomal CLint ([4]; human, liver microsomes)	Test B Human Plasma Protein Binding (% free) [5]	EC50 ([1]; Test A EC50, RXFP1 Hu cAMP)	hepatocyte CLint ([3]; rat hepatocytes)	microsomal CLint ([4]; human liver microsomes)
COc1cc(F)c(-c2ccc(C(=O)O)cc2)cc1C(=O)N[C@H]1[C@@H](C(=O)Nc2cccc(S(=O)(=O)C(F)(F)F)c2)[C@@H]2C=C[C@H]1C2 (racemic) [Example 224, rac-2′-Fluoro-4′-methoxy-5′-(((1R,2R,3S,4S)-3-((3-((trifluoromethyl)sulfonyl)phenyl)carbamoyl)bicyclo[2.2.1]hept-5-en-2-yl)carbamoyl)-[1,1′-biphenyl]-4-carboxylic acid]	92%	0.19 µM	870 µM (≈ 550 µg/mL)	19 µL/min/1e6 cells	6.3 µL/min/mg	0.16 % free	–	–	–
CCC(CC)CNC(=O)[C@H]1CCC[C@H]1NC(=O)c1cc(O[C@H]2CC[C@@](C)(C(=O)O)CC2)c(F)cc1OC [Example 59, (1S,4s)-4-(5-(((1R,2S)-2-((2-Ethylbutyl)carbamoyl)cyclopentyl)carbamoyl)-2-fluoro-4-methoxyphenoxy)-1-methylcyclohexane-1-carboxylic acid]	100%	0.55 µM	960 µM (≈ 500 µg/mL)	27 µL/min/1e6 cells	22 µL/min/mg	2.4 % free	–	–	–
COc1cc(F)c(O[C@H]2CC[C@@H](C(=O)O)CC2)cc1C(=O)N[C@@H]1[C@H]2CC[C@H](C2)[C@@H]1C(=O)Nc1ccc(C#N)c(C(F)(F)F)c1 [Example 28]	96%	–	690 µM (≈ 426 µg/mL)	–	–	0.94 % free	0.044 µM	51 µL/min/1e6 cells	32 µL/min/mg
COc1cc(F)c(-c2ccc(CCC(=O)O)cc2)cc1C(=O)N[C@@H]1CCC[C@@H]1C(=O)Nc1cccc(S(=O)(=O)C(F)(F)F)c1 [Example 321]	101%	0.34 µM	950 µM (≈ 605 µg/mL)	59 µL/min/1e6 cells	33 µL/min/mg	0.45 % free	–	–	–

More lines, main results first:

Test A Sinf ([1]; RXFP1 Hu cAMP)	EC50 [1, 6]	solubility [2]	hepatocyte CLint ([3]; rat, hepatocytes)	microsomal CLint ([4]; human, liver microsomes)	Test B Human Plasma Protein Binding (% free) [5]	SMILES	EC50 ([1]; Test A EC50, RXFP1 Hu cAMP)	hepatocyte CLint ([3]; rat hepatocytes)	microsomal CLint ([4]; human liver microsomes)
–	> 50 µM	24 µM (≈ 14.7 µg/mL)	< 1 µL/min/1e6 cells	< 3 µL/min/mg	3.2 % free	COc1cc(F)c(O[C@H]2CC[C@@H](C(=O)O)CC2)cc1C(=O)N[C@H]1[C@@H](C(=O)Nc2ccc(F)c(C(F)(F)F)c2)[C@H]2CC[C@@H]1O2 [Example 49, (1R,4s)-4-(2-Fluoro-5-(((1S,2S,3R,4R)-3-((4-fluoro-3-(trifluoromethyl)phenyl)carbamoyl)-7-oxabicyclo[2.2.1]heptan-2-yl)carbamoyl)-4-methoxyphenoxy)cyclohexane-1-carboxylic acid]	–	–	–
96%	0.38 µM	1000 µM (≈ 549 µg/mL)	18 µL/min/1e6 cells	< 3 µL/min/mg	13 % free	COc1cc(F)c(O[C@H]2CC[C@@](C)(C(=O)O)CC2)cc1C(=O)N[C@@H]1[C@H]2CC[C@H](C2)[C@@H]1C(=O)NCC1(CF)CC1 [Example 48]	–	–	–
99%	0.47 µM	530 µM (≈ 330 µg/mL)	24 µL/min/1e6 cells	31 µL/min/mg	0.53 % free	COc1cc(NC(=O)[C@H]2[C@@H]3CC[C@@H](C3)[C@H]2NC(=O)c2cc(O[C@H]3CC[C@@H](C(=O)O)CC3)c(F)cc2OC)cc(C(F)(F)F)c1 [Example 194]	–	–	–
115%	6.3 µM	520 µM (≈ 309 µg/mL)	10 µL/min/1e6 cells	24 µL/min/mg	3.1 % free	COc1cc(F)c(O[C@H]2CC[C@@H](C(=O)O)CC2)cc1C(=O)N[C@@H]1[C@H]2CC[C@H](C2)[C@@H]1C(=O)Nc1ccc(C(F)(F)F)cn1 [Example 13, (1S,4s)-4-(2-Fluoro-4-methoxy-5-(((1S,2R,3S,4R)-3-((5-(trifluoromethyl)pyridin-2-yl)carbamoyl)bicyclo[2.2.1]heptan-2-yl)carbamoyl)phenoxy)cyclohexane-1-carboxylic acid]	–	–	–
